Test results taken from patent publication US10907212B2, “Inhibitors of cell adhesion” (Regents of the University of Minnesota, priority 2016, dated 2021).
“Also recorded” adds a separate entry of the source. Where no end group is shown, it is not given here.

Key:
[1] = tested on: ovarian cancer cell aggregation and spheroid formation; assay: Spheroid assay for peptides (visual scale +1 to +5); type: cell-based, human; conditions: for Spheroid-24: 24 hrs, Control = 2; for Spheroid-24 / Spheroid-48: visual scale of +1 to +5; for Spheroid-48: 48 hrs, Control = 4; for spheroid size relative to the control (in words): at 24 hrs
Protocol: Spheroids were formed from the NIH:OVCAR5 cell lines described above using the liquid overlay method. One milliliter of a single cell suspension was seeded at a concentration of 50,000 cells/ml in OptiMEM® media, into 24-well tissue culture plates coated with 0.5% Seakem agarose (in complete RPMI-1640). Plates were incubated at 37° C. in a humidified incubator with 5% CO2. At various time points up to 5 days, the plates were removed from the incubator and the spheroids were photographed with a Nikon CoolPix digital camera mounted on an Olympus CK2 inverted microscope with a 4× objective. The size of the spheroids was determined using the measure tool in Adobe Photoshop. The largest spheroids were quantified (20-90 spheroids/well), in a minimum of 8 wells, for a total of >300 spheroids per cell type.
The clinical relevance is that by blocking the formation of spheroids, the cells will be more sensitive to chemotherapy (which targets the single cells that proliferate more rapidly than spheroids).
The spheroid assay for peptides 1-30 were scored using a visual scale of +1 to +5. The controls were scored at +2 (24 hrs) and +4 (48 hrs). […] It may be harder to visually assess the size at 24 hours, since the spheroids are relatively small, but and perhaps some of the peptides are affecting cell division, and that is why the spheroids are smaller than the controls at 48 hours, but not 24 hrs (this can be easily assayed with an MTT assay).

[2] = tested on: nectin 4 protein on NIH:OVCAR-5 cells; assay: Effect of peptides on anti-Nectin-4 antibody binding to cells as determined by flow cytometry; type: cell-based, human; conditions: for IgG MFI: IgG control primary antibody; for nectin-4 antibody binding compared to untreated control cells (in words): flow cytometry; for Flow binding: summary table, Nectin-4 antibody binding relative to control = 100
Protocol: Confluent monolayers of cells were detached from 75 cm^2 tissue culture flasks using Accutase cell dissociation buffer (Innovative Cell Technologies, San Diego, Calif.), washed, and labeled with mouse IgG or mAbs against Nectin-4 or Nectin-1 (2.5 μg/10^6 cells) in Flow Buffer [phosphate buffered saline (PBS) containing 2.5% newborn calf serum and 0.02% sodium azide] for 30 min at 4° C.. Cells were washed and incubated with goat anti-mouse IgG F(ab′)2 (Jackson ImmunoResearch, West Grove, Pa.), then washed again and incubated with streptavidin-allophycocyanin conjugate (Jackson ImmunoResearch, West Grove, Pa.) for 30 min each. Cells were washed and fixed in Flow Buffer containing 1% formaldehyde and analyzed in the University of Minnesota Flow Cytometry Resource with a BD Accuri™ C6 flow cytometer (BD Biosciences, San Jose, Calif.) using the Accuri™ software.
Briefly, NIH:OVCAR-5 cells that natively express a moderate amount of nectin 4 protein were incubated for 30 minutes in 150 μg/mL of soluble peptide in DMSO. After incubation, the cells were washed, and then triple antibody stained using mouse anti-nectin 4 (or IgG control) primary antibody, biotinylated goat anti-mouse secondary antibody, and streptavidin APC tertiary antibody. Finally, utilizing the University of Minnesota flow core's Accuri C6 flow cytometer, the relative antibody binding affinity for control and peptide-treated samples was quantitated and compared. Data was collected for each of the 57 peptides generated.

[3] = Run Four, 150 μg/mL peptide, 30 minutes, Control 4 = 9,631.58
[4] = Run Four, Control 4 = 9.387504873
[5] = Run Four, antibody binding relative to Control 4 = 100
[6] = Run One, 150 μg/mL peptide, 30 minutes, Control 1 = 15,015
[7] = Run One, 150 μg/mL peptide, 30 minutes, Control 1 = 1,670
[8] = Run One, antibody binding relative to Control 1 = 100.00
[9] = Run Two, 150 μg/mL peptide, 30 minutes, Control 2 = 49,491
[10] = Run Two, antibody binding relative to Control 2 = 100.00

Row | Substance | Spheroid-24 [1] | N4 MFI [2, 3] | N4 MFI/IgG MFI [2, 4] | IgG MFI ([2]; Run Four, Control 4 = 1,026) | nectin-4 antibody binding, percent of control [2, 5] | Spheroid-48 [1] | N4 MFI [2, 6] | IgG MFI [2, 7] | N4 MFI/IgG MFI ([2]; Run One, Control 1 = 8.99) | nectin-4 antibody binding, percent of control [2, 8] | spheroid size (in words) [1] | nectin-4 antibody binding compared to untreated control cells (in words) ([2]; 150 μg/mL peptide) | Flow binding [2] | N4 MFI [2, 9] | N4 MFI/IgG MFI ([2]; Run Two, Control 2 = 9.46) | IgG MFI ([2]; Run Two, Control 2 = 5,233) | nectin-4 antibody binding, percent of control [2, 10] | spheroid size relative to the control (in words) [1]
1 | RLKGEAEYQEIRNP-NH2 (listed as Homo sapiens) [Peptide 43] | 5 | 9,677.93 | 7.399 | 1308 | 97.26 |  |  |  |  |  |  |  |  |  |  |  |  | 
2 | LVPSRSMNGQPLTC-NH2 (listed as Homo sapiens) [Peptide 16] | 1 |  |  |  |  | 1 | 12,161 | 2,432 | 5.00 | 72.90 |  |  |  |  |  |  |  | 
3 | HSRSAAVTSEFHLV-NH2 (listed as Homo sapiens) [Peptide 15] | 1 |  |  |  |  | 2 | 7,980 | 2,158 | 3.70 | 43.63 | reduced spheroid size | reduction in nectin-4 antibody binding; also recorded: reduced antibody binding | 44% |  |  |  |  | 
4 | ESLTLNVQYEPE-NH2 (listed as Homo sapiens) [Peptide 47] | 1 | 11,949.18 | 6.679 | 1789 | 118.1 | 2 |  |  |  |  |  |  |  |  |  |  |  | 
5 | SGKQVDLVSAS-NH2 (listed as Homo sapiens) [Peptide 27] | 1 |  |  |  |  | 2 |  |  |  |  |  | reduction in nectin-4 antibody binding | 42% | 22,824 | 5.57 | 4,099 | 42.31 | 
6 | ELALLHSKYGLHVS-NH2 (listed as Homo sapiens) [Peptide 5] |  |  |  |  |  | 3 | 11,668 | 1,711 | 6.82 | 74.61 |  |  |  |  |  |  |  | 
7 | TTEHSGIYVCHVSN-NH2 (listed as Homo sapiens) [Peptide 24] |  |  |  |  |  | 3 |  |  |  |  |  |  |  | 33,353 | 8.76 | 3,808 | 66.76 | 
8 | ECRVSTFPAGSFQA-NH2 (listed as Homo sapiens) [Peptide 9] |  |  |  |  |  | 3 | 8,578 | 1,886 | 4.55 | 50.15 |  | reduction in nectin-4 antibody binding | 50% |  |  |  |  | 
9 | QARLRLRVLVPPLP-NH2 (listed as Homo sapiens) [Peptide 10] | 1 |  |  |  |  | 2 | 4,119 | 2,452 | 1.68 | 12.49 | reduced spheroid size | reduction in nectin-4 antibody binding; also recorded: reduced antibody binding | 12.50% |  |  |  |  | 
10 | LWHIGREGAMLKCL-NH2 (listed as Homo sapiens) [Peptide 20] |  |  |  |  |  | 2 | 17,636 | 1,890 | 9.33 | 117.99 |  | increased binding of nectin-4 antibody | 118% |  |  |  |  | 
11 | LRNAVQADEGEYEC-NH2 (listed as Homo sapiens) [Peptide 8] | 3 |  |  |  |  |  | 20,015 | 1,670 | 11.99 | 137.47 |  | increased the binding of the Nectin-4 antibody to cells | 137% |  |  |  |  | slightly larger spheroid size
12 | PPPRNPLDGSVLLR-NH2 (listed as Homo sapiens) [Peptide 7] | 3 |  |  |  |  |  | 18,342 | 1,255 | 14.62 | 128.04 |  | increased the binding of the Nectin-4 antibody to cells | 128% |  |  |  |  | slightly larger spheroid size
13 | AEASVRGLEDQNLW-NH2 (listed as Homo sapiens) [Peptide 19] | 1 |  |  |  |  | 2 | 7,278 | 2,254 | 3.23 | 37.65 | reduced spheroid size | reduction in nectin-4 antibody binding; also recorded: reduced antibody binding | 38% |  |  |  |  | 
14 | NPNGTVTVISRYRLV-NH2 (listed as Homo sapiens) [Peptide 44] | 3 | 7,802.22 | 8.481 | 920 | 79.97 |  |  |  |  |  |  |  |  |  |  |  |  | 
15 | SNEFSSRDSQVTVD-NH2 (listed as Homo sapiens) [Peptide 25] | 2 |  |  |  |  |  |  |  |  |  |  | reduction in nectin-4 antibody binding | 9.40% | 7,756 | 2.16 | 3,584 | 9.43 | 
16 | VDVLDPQEDSGKQV-NH2 (listed as Homo sapiens) [Peptide 26] | 1 |  |  |  |  | 2 |  |  |  |  |  |  |  | 35,299 | 8.92 | 3,956 | 70.82 | 
17 | LVPSREAHQQSLAC-NH2 (listed as Homo sapiens) [Peptide 45] | 3 | 9,868.29 | 9.646 | 1023 | 102.8 |  |  |  |  |  |  |  |  |  |  |  |  | 
